Experimental data: patent US20250381198A1 (Melt Pharmaceuticals, Inc., priority 2024, published 2025)

Columns and labels:
Format in all cases: in vivo, human
[1] = test system: subjects undergoing cataract extraction with lens replacement (CELR); assay: Phase 3: preoperative procedural sedation responders (second key secondary); conditions: for Preoperative procedural sedation responder - n: number of subjects
[2] = test system: subjects undergoing cataract extraction with lens replacement (CELR); assay: Phase 3: intraoperative supplemental analgesia; conditions: intention-to-treat analysis set
[3] = test system: subjects undergoing cataract extraction with lens replacement (CELR); assay: Phase 3: surgeon satisfaction (5-point Likert scale); parameters: key to Surgeon Satisfaction Scores, Min / Surgeon Satisfaction Scores, Max: 5=very satisfied; 4=satisfied; 3=neither satisfied nor dissatisfied; 2=dissatisfied; 1=very dissatisfied; conditions: ITT analysis set
Protocol: (§1) Surgeon satisfaction with the operative experience was measured postoperatively on Day 1 using a 5-point Likert scale (5=very satisfied; 4=satisfied; 3=neither satisfied nor dissatisfied; 2=dissatisfied; 1=very dissatisfied). […] The means were compared using 2-sample t-tests and the Satterthwaite method. The proportion of satisfied responses (‘Very Satisfied’ or ‘Satisfied’, pooled) were tested using a Pearson's chi-square test; and a Fisher's exact test was used instead if any expected values were <5.

[4] = test system: subjects undergoing cataract extraction with lens replacement (CELR); assay: Phase 3: patient satisfaction (5-point Likert scale); parameters: key to Patient Satisfaction Scores, Min / Patient Satisfaction Scores, Max: 5=very satisfied; 4=satisfied; 3=neither satisfied nor dissatisfied; 2=dissatisfied; 1=very dissatisfied; conditions: ITT analysis set
Protocol: as §1, with “Patient” for “Surgeon”, “at the Follow-Up visit” for “postoperatively on Day 1”

Compound: Cc1ncc2n1-c1ccc(Cl)cc1C(c1ccccc1F)=NC2 [Midazolam, 8-chloro-6-(2-fluorophenyl)-1-methyl-4H-imidazo[1,5-a][1,4]benzodiazepine]
- Preoperative procedural sedation responder - % ([1]; All-Treated Analysis Set): 73.0%
- Preoperative procedural sedation responder - n ([1]; All-Treated Analysis Set): 65
- Preoperative procedural sedation responder - % ([1]; ITT Analysis Set): 73.0%
- Preoperative procedural sedation responder - n ([1]; ITT Analysis Set): 65
- Preoperative procedural sedation responders ([1]; ITT analysis set): 73.0%
- Preoperative procedural sedation responder - % ([1]; PP Analysis Set): 73.0%
- Preoperative procedural sedation responder - n ([1]; PP Analysis Set): 65
- Preoperative procedural sedation responders ([1]; PP analysis set): 73.0%
- Preoperative procedural sedation responders ([1]; all-treated analysis set): 73.0%
- Subjects who received intraoperative supplemental analgesia [2]: 1.1%
- Surgeon Satisfaction Scores, Max ([3]; 5-point Likert scale): 5
- Surgeon Satisfaction Scores, Mean ± SD ([3]; 5-point Likert scale): 4.8 ± 0.56
- Surgeon Satisfaction Scores, Median ([3]; 5-point Likert scale): 5.0
- Surgeon Satisfaction Scores, Min ([3]; 5-point Likert scale): 2
- Surgeon Satisfaction Score 1 = Very Dissatisfied [3]: 0 n
- Patient Satisfaction Scores, Max ([4]; 5-point Likert scale): 5
- Patient Satisfaction Scores, Mean ± SD ([4]; 5-point Likert scale): 4.8 ± 0.55
- Patient Satisfaction Scores, Median ([4]; 5-point Likert scale): 5.0
- Patient Satisfaction Scores, Min ([4]; 5-point Likert scale): 2
- Patient Satisfaction Score 1 = Very Dissatisfied [4]: 0 n
